# Key:
# Type in all cases: cell-based
# [1] = system: T24 bladder cancer cells; experiment: Cancer cell survival (CellTiter-Glo), T24; conditions: Homo sapiens
# Method in brief: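 Viability by CellTiter-Glo after 72 h compound treatment of T24 bladder cancer cells (4×10^3/well, plated the night before), nine concentration levels in triplicate. Percent survival normalised to untreated cells minus medium background, from which IC50 was determined.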
# [2] = system: AGS stomach cancer cells; experiment: Cancer cell survival (CellTiter-Glo), AGS
# Method in brief: (§1)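 CellTiter-Glo luminescence after 72 h compound exposure (37 C, 5% CO2; nine concentration levels, triplicate) of overnight-plated cells at 4×10^3 per well. IC50 calculated from survival % relative to untreated cells after medium-background subtraction.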
# [3] = system: MCF7 breast cancer cells; experiment: Cancer cell survival (CellTiter-Glo), MCF7; conditions: Homo sapiens, 72 h
# Method in brief: as §1
# [4] = system: PC-3 prostate cancer cells; experiment: Cancer cell survival (CellTiter-Glo), PC-3; conditions: Homo sapiens, PC-3 cells, 72 h
# Method in brief: as §1
# [5] = system: A549 lung cancer cells; experiment: Cancer cell survival (CellTiter-Glo), A549; conditions: Homo sapiens, 72 h
# Method in brief: as §1
# [6] = system: Daudi lymphoma cancer cells; experiment: Cancer cell survival (CellTiter-Glo), Daudi; conditions: Homo sapiens, 72 h
# Method in brief: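 Daudi cells (4×10^3/well) were exposed for 72 h at 37 °C to nine concentrations of compound, added as 10× solutions spanning 1 μM–10 mM (fatty acids) or 100 nM–1 mM (others). CellTiter-Glo luminescence gave % survival versus untreated, medium-blank corrected; IC50 derived.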
# [7] = system: A-431 skin cancer cells; experiment: Cancer cell survival (CellTiter-Glo), A-431; conditions: Homo sapiens, A-431 cells, 72 h
# Method in brief: as §1
# [8] = system: HCT 116 colorectal cancer cells; experiment: Cancer cell survival (CellTiter-Glo), HCT 116; conditions: Homo sapiens, HCT 116 cells, 72 h
# Method in brief: as §1
# [9] = 317 μM, read-out: Cell survival at given concentration
# [10] = 1 mM, read-out: Cell survival at given concentration
# [11] = 3 mM, read-out: Cell survival at given concentration
# [12] = 10 mM, read-out: Cell survival at given concentration
compound,measurement,setting,value
CCCC(=O)O [butyrate],viability at 1 µM,"[1]; T-24, 1 μM, 72 h, Table 3.2, read-out: Cell survival at given concentration",98%
same,viability at 3 µM,"[1]; T-24, 3 μM, 72 h, Table 3.2, read-out: Cell survival at given concentration",100%
same,viability at 10 µM,"[1]; T-24, 10 μM, 72 h, Table 3.2, read-out: Cell survival at given concentration",105%
same,viability at 32 µM,"[1]; T-24, 32 μM, 72 h, Table 3.2, read-out: Cell survival at given concentration",99%
same,viability at 100 µM,"[1]; T-24, 100 μM, 72 h, Table 3.2, read-out: Cell survival at given concentration",97%
same,viability at 317 µM,"[1]; T-24, 317 μM, 72 h, read-out: Cell survival at given concentration",90%
same,viability at 1000 µM,"[1]; T-24, 1 mM, 72 h, read-out: Cell survival at given concentration",84%
same,viability at 3000 µM,"[1]; T-24, 3 mM, 72 h, read-out: Cell survival at given concentration",60%
same,viability at 10000 µM,"[1]; T-24, 10 mM, 72 h, read-out: Cell survival at given concentration",27%
same,IC50,"[1]; T-24, 72 h, Table 3.2, read-out: IC50",4.72 mM
same,viability at 1 µM,"[2]; 72 h, 1 μM, Table 10.2, read-out: Cell survival at given concentration",100%
same,viability at 3 µM,"[2]; 72 h, 3 μM, Table 10.2, read-out: Cell survival at given concentration",100%
same,viability at 10 µM,"[2]; 72 h, 10 μM, Table 10.2, read-out: Cell survival at given concentration",102%
same,viability at 32 µM,"[2]; 72 h, 32 μM, Table 10.2, read-out: Cell survival at given concentration",101%
same,viability at 100 µM,"[2]; 72 h, 100 μM, Table 10.2, read-out: Cell survival at given concentration",104%
same,viability at 317 µM,"[2]; 72 h, 317 μM, read-out: Cell survival at given concentration",105%
same,viability at 1000 µM,"[2]; 72 h, 1 mM, read-out: Cell survival at given concentration",91%
same,viability at 3000 µM,"[2]; 72 h, 3 mM, read-out: Cell survival at given concentration",65%
same,viability at 10000 µM,"[2]; 72 h, 10 mM, read-out: Cell survival at given concentration",11%
same,IC50,[2]; Table 10.2,4.46 mM
same,viability at 1 µM,"[3]; 1 μM, Table 5.2, read-out: Cell survival at given concentration",101%
same,viability at 3 µM,"[3]; 3 μM, Table 5.2, read-out: Cell survival at given concentration",103%
same,viability at 10 µM,"[3]; 10 μM, Table 5.2, read-out: Cell survival at given concentration",102%
same,viability at 32 µM,"[3]; 32 μM, Table 5.2, read-out: Cell survival at given concentration",100%
same,viability at 100 µM,"[3]; 100 μM, Table 5.2, read-out: Cell survival at given concentration",104%
same,viability at 317 µM,[3]; [9],98%
same,viability at 1000 µM,[3]; [10],82%
same,viability at 3000 µM,[3]; [11],54%
same,viability at 10000 µM,[3]; [12],24%
same,IC50,[3]; Table 5.2,3.59 mM
same,viability at 1 µM,"[4]; 1 μM, Table 8.2, read-out: Cell survival at given concentration",100%
same,viability at 3 µM,"[4]; 3 μM, Table 8.2, read-out: Cell survival at given concentration",99%
same,viability at 10 µM,"[4]; 10 μM, Table 8.2, read-out: Cell survival at given concentration",100%
same,viability at 32 µM,"[4]; 32 μM, Table 8.2, read-out: Cell survival at given concentration",100%
same,viability at 100 µM,"[4]; 100 μM, Table 8.2, read-out: Cell survival at given concentration",98%
same,viability at 317 µM,[4]; [9],93%
same,viability at 1000 µM,[4]; [10],82%
same,viability at 3000 µM,[4]; [11],66%
same,viability at 10000 µM,[4]; [12],40%
same,IC50,[4]; Table 8.2,6.44 mM
same,viability at 1 µM,"[5]; 1 μM, Table 7.2, read-out: Cell survival at given concentration",95%
same,viability at 3 µM,"[5]; 3 μM, Table 7.2, read-out: Cell survival at given concentration",96%
same,viability at 10 µM,"[5]; 10 μM, Table 7.2, read-out: Cell survival at given concentration",99%
same,viability at 32 µM,"[5]; 32 μM, Table 7.2, read-out: Cell survival at given concentration",100%
same,viability at 100 µM,"[5]; 100 μM, Table 7.2, read-out: Cell survival at given concentration",102%
same,viability at 317 µM,[5]; [9],101%
same,viability at 1000 µM,[5]; [10],90%
same,viability at 3000 µM,[5]; [11],67%
same,viability at 10000 µM,[5]; [12],27%
same,IC50,[5]; Table 7.2,5.07 mM
same,viability at 1 µM,"[6]; 1 μM, Table 4.2, read-out: Cell survival at given concentration",101%
same,viability at 3 µM,"[6]; 3 μM, Table 4.2, read-out: Cell survival at given concentration",99%
same,viability at 10 µM,"[6]; 10 μM, Table 4.2, read-out: Cell survival at given concentration",100%
same,viability at 32 µM,"[6]; 32 μM, Table 4.2, read-out: Cell survival at given concentration",100%
same,viability at 100 µM,"[6]; 100 μM, Table 4.2, read-out: Cell survival at given concentration",99%
same,viability at 317 µM,[6]; [9],87%
same,viability at 1000 µM,[6]; [10],46%
same,viability at 3000 µM,[6]; [11],19%
same,viability at 10000 µM,[6]; [12],13%
same,IC50,[6]; Table 4.2,0.912 mM
same,viability at 1 µM,"[7]; 1 μM, Table 9.2, read-out: Cell survival at given concentration",103%
same,viability at 3 µM,"[7]; 3 μM, Table 9.2, read-out: Cell survival at given concentration",102%
same,viability at 10 µM,"[7]; 10 μM, Table 9.2, read-out: Cell survival at given concentration",102%
same,viability at 32 µM,"[7]; 32 μM, Table 9.2, read-out: Cell survival at given concentration",103%
same,viability at 100 µM,"[7]; 100 μM, Table 9.2, read-out: Cell survival at given concentration",99%
same,viability at 317 µM,[7]; [9],96%
same,viability at 1000 µM,[7]; [10],85%
same,viability at 3000 µM,[7]; [11],67%
same,viability at 10000 µM,[7]; [12],37%
same,IC50,[7]; Table 9.2,6.32 mM
same,viability at 1 µM,"[8]; 1 μM, Table 6.2, read-out: Cell survival at given concentration",98%
same,viability at 3 µM,"[8]; 3 μM, Table 6.2, read-out: Cell survival at given concentration",99%
same,viability at 10 µM,"[8]; 10 μM, Table 6.2, read-out: Cell survival at given concentration",102%
same,viability at 32 µM,"[8]; 32 μM, Table 6.2, read-out: Cell survival at given concentration",101%
same,viability at 100 µM,"[8]; 100 μM, Table 6.2, read-out: Cell survival at given concentration",97%
same,viability at 317 µM,[8]; [9],92%
same,viability at 1000 µM,[8]; [10],66%
same,viability at 3000 µM,[8]; [11],18%
same,viability at 10000 µM,[8]; [12],1%
same,IC50,[8]; Table 6.2,1.44 mM

# From patent publication US20210085640A1, “ACYLATED CATECHIN POLYPHENOLS AND METHODS OF THEIR USE FOR THE TREATMENT OF CANCER” (Flagship Pioneering Innovations V, Inc., priority 2018, published 2021)
